Results reported in paper PMC6177136, “Hybrid topoisomerase I and HDAC inhibitors as dual action anticancer agents” (PLoS ONE, 2018).
Read-outs that look alike come from different tables or passages of the source.

Assays:
MM288 = assay: Cytotoxicity assay, primary mesothelioma MM288; type: cell-based, Human; conditions: for IC50: epithelioid, 72 h, SBR assay, read-out: IC50 ± SD MM288
MM317 = assay: Cytotoxicity assay, primary mesothelioma MM317; type: cell-based, Human; conditions: epithelioid, 72 h, SBR assay, read-out: IC50 ± SD MM317
MM404 = assay: Cytotoxicity assay, primary mesothelioma MM404; type: cell-based, Human; conditions: epithelioid, 72 h, SBR assay; read-out: IC50 ± SD MM404
MM473 = assay: Cytotoxicity assay, primary mesothelioma MM473; type: cell-based, Human; conditions: epithelioid, 72 h, SBR assay; read-out: IC50 ± SD MM473
MM481 = assay: Cytotoxicity assay, primary mesothelioma MM481; type: cell-based, Human; conditions: epithelioid, 72 h, SBR assay; read-out: IC50 ± SD MM481
MM487 = assay: Cytotoxicity assay, primary mesothelioma MM487; type: cell-based, Human; conditions: for IC50: biphasic, 72 h, SBR assay, read-out: IC50 ± SD MM487
MM491 = assay: Cytotoxicity assay, primary mesothelioma MM491; type: cell-based, Human; conditions: biphasic, 72 h, SBR assay; read-out: IC50 ± SD MM491
MM432 = assay: Cytotoxicity assay, primary mesothelioma MM432; type: cell-based, Human; conditions: for IC50: sarcomatoid, 72 h, SBR assay, read-out: IC50 ± SD MM432
NCI-H460 = assay: Cytotoxicity assay (SRB, 72 h) NCI-H460; type: cell-based, Human; conditions: Homo sapiens, NCI-H460; 72 h, SRB assay; read-out: IC50 ± SD NCI-H460
Capan 1 = assay: Cytotoxicity assay (SRB, 72 h) Capan 1; type: cell-based, Human; conditions: Homo sapiens, CAPAN-1, read-out: IC50 ± SD Capan 1
A431 = assay: Cytotoxicity assay (SRB, 72 h) A431; type: cell-based, Human; conditions: Homo sapiens, A-431, read-out: IC50 ± SD A431
HeLa = assay: Cytotoxicity assay (SRB, 72 h) HeLa; type: cell-based, Human; conditions: Homo sapiens, HeLa, read-out: IC50 ± SD HeLa
HT29 = assay: Cytotoxicity assay (SRB, 72 h) HT29; type: cell-based, Human; conditions: Homo sapiens, HT-29, read-out: IC50 ± SD HT29
DU145 = assay: Cytotoxicity assay (SRB, 72 h) DU145; type: cell-based, Human; conditions: Homo sapiens, DU-145, read-out: IC50 ± SD DU145
HepG2 = assay: Cytotoxicity assay (SRB, 72 h) HepG2; type: cell-based, Human; conditions: Homo sapiens, HepG2, read-out: IC50 ± SD HepG2
A2780 = assay: Cytotoxicity assay (SRB, 72 h) A2780; type: cell-based, Human; conditions: Homo sapiens, A2780, read-out: IC50 ± SD A2780
A2780-Dx = assay: Cytotoxicity assay (SRB, 72 h) A2780-Dx; type: cell-based, Human; conditions: Homo sapiens, A2780/DX; 72 h, SRB assay; multidrug-resistant ovarian carcinoma; read-out: IC50 ± SD A2780-Dx
[1] = tested on: series of human tumor cell lines; assay: Antiproliferative activity, series of human tumor cell lines (summary); type: cell-based; conditions: span over the cell line panel, 72 h, SRB assay, read-out: IC50 across the human tumor cell lines of Table 3
MINO = assay: Cytotoxicity assay (MTT, 72 h) MINO; type: cell-based, Human
MAVER-2 = assay: Cytotoxicity assay (MTT, 72 h) MAVER-2; type: cell-based, Human; conditions: Homo sapiens, read-out: IC50 ± SD MAVER-2
JECO-1 = assay: Cytotoxicity assay (MTT, 72 h) JECO-1; type: cell-based, Human
U-2932 = assay: Cytotoxicity assay (MTT, 72 h) U-2932; type: cell-based, Human; conditions: Homo sapiens, U2932, read-out: IC50 ± SD U-2932
OCI-LY3 = assay: Cytotoxicity assay (MTT, 72 h) OCI-LY3; type: cell-based, Human
Procedure: (§1) Human tumor cells were seeded in 96-well cell culture plastic plates, allowed to attach, and exposed to scalar concentrations of the test compounds.

L-428 = assay: Cytotoxicity assay (MTT, 72 h) L-428; type: cell-based, Human
Procedure: as §1

KM-H2 = assay: Cytotoxicity assay (MTT, 72 h) KM-H2; type: cell-based, Human
DG-75 = assay: Cytotoxicity assay (MTT, 72 h) DG-75; type: cell-based, Human
NB4 = assay: Cytotoxicity assay (MTT, 72 h) NB4; type: cell-based, Human; conditions: Homo sapiens, NB-4, read-out: IC50 ± SD NB4
[2] = tested on: hematologic cancer cell lines; assay: Screening on hematologic cancer cell lines (summary); type: cell-based; conditions: Homo sapiens, read-out: IC50 across hematologic cancer cell lines (Tables 5 and 6); span over the cell line panel, 72 h, MTT assay
[3] = tested on: primary malignant pleural mesothelioma (MPM) cell lines; assay: Primary malignant pleural mesothelioma (MPM) cell lines (summary); type: cell-based; conditions: Homo sapiens, span over the cell line panel, 72 h, read-out: IC50 across primary mesothelioma cell lines (Table 7)
NCI-H460 NSCLC cells = assay: FACS analysis of cell cycle and apoptosis; type: cell-based, Human; conditions: 72 h at own IC80 dose, PI staining
[4] = tested on: human epithelioid mesothelioma MM473-Luc; assay: In vivo antitumor activity, orthotopic MM473-Luc xenograft; conditions: i.v. 35 mg/kg, q4dx3, treatment from day 15
[5] = meaning not defined in the paper
[6] = meaning not defined in the paper, given beside >10 μM

O=c1[nH]cc(F)c(=O)[nH]1 [Compound 5-FU] was tested, and the IC50 (MM288) was over 200 µM, the “percentage in parentheses after IC50 >200, MM288” value (MM288; [5]) was 35% and the IC50 (MM317) was 17.9 ± 3.1 µM. The IC50 (MM404) was 52.2 ± 8.7 µM, the IC50 (MM473) was 35.2 ± 8.4 µM and the IC50 (MM481) was 27.4 ± 2.2 µM. The IC50 (MM487) was over 200 µM, the “percentage in parentheses after IC50 >200, MM487” value (MM487; [5]) was 48% and the IC50 (MM491) was 44 ± 10.3 µM. For the same molecule, the “percentage in parentheses after IC50 >200, MM432” value (MM432; [5]) was 34% and the IC50 (MM432) was over 200 µM.

CCc1c2c(nc3ccc(OC(=O)N4CCC(N5CCCCC5)CC4)cc13)-c1cc3c(c(=O)n1C2)COC(=O)[C@]3(O)CC [Irinotecan] was tested, and the IC50 (NCI-H460) was 2400 ± 100 nM, the IC50 (Capan 1) was 1500 ± 100 nM and the IC50 (A431) was 4.1 ± 0.1 µM. For the same molecule, the IC50 (HeLa) was 5.8 ± 0.6 µM, the IC50 (HT29) was 4.8 ± 0.4 µM and the IC50 (DU145) was 2800 ± 70 nM. The IC50 (HepG2) was 4 ± 0.8 µM, the IC50 (A2780) was 3.8 ± 0.5 µM and the IC50 (A2780-Dx) was 20.1 ± 2.9 µM. The IC50 [1] was over 1500 nM, the IC50 (MINO; Homo sapiens, MINO, 72 h, MTT assay, read-out: IC50 ± SD MINO) was over 10 µM and the “percentage in parentheses after IC50 >10, MINO” value (MINO; [6]) was 36%. For the same molecule, the IC50 (MAVER-2) was 740 ± 100 nM, the IC50 (JECO-1; Homo sapiens, 72 h, MTT assay, read-out: IC50 ± SD JECO-1) was over 10 µM and the “percentage in parentheses after IC50 >10, JECO-1” value (JECO-1; [6]) was 48%. The IC50 (U-2932) was 4.4 ± 0.8 µM, the IC50 (OCI-LY3; Homo sapiens, OCI-Ly3, 72 h, MTT assay, read-out: IC50 ± SD OCI-LY3) was over 10 µM and the “percentage in parentheses after IC50 >10, OCI-LY3” value (OCI-LY3; [6]) was 0%. The IC50 (L-428; Homo sapiens, L-428, 72 h, MTT assay, read-out: IC50 ± SD L-428) was over 10 µM, the “percentage in parentheses after IC50 >10, L-428” value (L-428; [6]) was 0% and the IC50 (KM-H2; Homo sapiens, KM-H2, 72 h, MTT assay, read-out: IC50 ± SD KM-H2) was over 10 µM. For the same molecule, the “percentage in parentheses after IC50 >10, KM-H2” value (KM-H2; [6]) was 12%, the IC50 (DG-75; Homo sapiens, DG-75, 72 h, MTT assay, read-out: IC50 ± SD DG-75) was over 10 µM and the “percentage in parentheses after IC50 >10, DG-75” value (DG-75; [6]) was 0%. The IC50 (NB4) was 1000 ± 300 nM, the IC50 [2] was over 10 µM and the IC50 (MM288; Homo sapiens) was 14.9 ± 2 µM. For the same molecule, the IC50 (MM317; Homo sapiens) was 7 ± 1 µM, the IC50 (MM487; Homo sapiens, MM487) was 9.4 ± 0.7 µM and the IC50 (MM432; Homo sapiens) was 10 ± 2 µM. For the same molecule, the IC50 [3] was over 7 µM, the “G0/1 (%)” value (NCI-H460 NSCLC cells) was 7.9% and the “G2/M (%)” value (NCI-H460 NSCLC cells) was 3.2%. The “S (%)” value (NCI-H460 NSCLC cells) was 89.0%, the “Sub-G0/1 (%)” value (NCI-H460 NSCLC cells; apoptosis) was 2.7% and the “antitumor activity (BLI signal, average radiance)” value [4] was “only a marginal antitumor effect”.
